Reference: patent US11826430B2, “Anti-cancer nuclear hormone receptor-targeting compounds” (Nuvation Bio Inc., priority 2019, dated 2023)

Experiments:
AR in LNCaP cytosol = AR in LNCaP cytosol (Homo sapiens (Human), UniProt P10275, T878A); assay: AR binding assay (3H-methyltrienolone displacement); conditions: read-out: AR IC50, 4° C. for 24 hours
Description: (§3) RBC HotSpot Poly(ADP-ribose) Polymerases 1 (PARP1) and Poly(ADP-ribose) Polymerases 2 (PARP2) Assays: The assay was conducted at Reaction Biology Corporation (RBC; Malvern, PA). The assay principle is radioisotope-based filter binding assay where incorporation of radioisotope-labeled NAD^+ into the substrate captured on filter is detected after washout free NAD^+. Data were analyzed using Excel and GraphPad Prism software for IC50 curve fits. Each assay was conducted with PJ34 as a positive control. PARP1 assay: Human recombinant PARP1 at a final concentration of 2.5 nM was combined with histone H4 (20 μM) and test articles at various concentrations in reaction buffer (50 mM Tris-HCL, pH 8.0, 50 mM NaCl, 10 mM MgCl2, 1 mM DTT, 1% DMSO, and 20 μg/mL activated DNA). The solution was inoculated for 20 min at room temperature and the reaction initiated by adding [adenylate-^32P]-Nicotinamide Adenine Dinucleotide, ^32P-NAD^+ at a final concentration of 10 μM. After incubation for 2 hrs at room temperature, the reaction mixture was filtered and washed with 0.75% phosphoric acid for radioactivity detection. • ii. PARP2 assay: Human recombinant PARP2 at a final concentration of 2.5 nM was combined with histone H3 (20 μM) and test articles at various concentrations in reaction buffer (50 mM Tris-HCL, pH 8.0, 50 mM NaCl, 10 mM MgCl2, 1 mM DTT, 1% DMSO, and 20 μg/mL activated DNA). The solution was inoculated for 20 min at room temperature and the reaction was initiated by adding [adenylate-^32P]-Nicotinamide Adenine Dinucleotide, ^32P-NAD^+ at a final concentration of 10 μM. After incubation for 2 hrs at room temperature, the reaction mixture was filtered and washed with 0.75% phosphoric acid for radioactivity detection. b. AR binding assay: AR in LNCaP cytosol was used for determining the binding affinity of test articles and the reference compound—progesterone (Sigma, Cat: E2785, St. Louis, MO). IC50s were determined using 8 concentrations/compound. Cytosol was plated at 200 μg/well (100 μL) into a 96-well conical polypropylene plate (Agilent, Cat: 5042-1385, Santa Clara, CA) and mixed with 3 μL of test compound. After adding 100 μL of ^3H-methyltrienolone (PerkinElmer, Cat: NET590250UC, San Jose, CA), the plate was sealed and shaken at 300 rpm at 4° C. for 24 hours. Post incubation, 100 μL of radioligand adsorption buffer containing 10 mM Tris-HCl, pH 7.4; 1.5 mM EDTA; 1 mM DTT; 0.25% charcoal; 0.0025% dextran was added to individual well. Plate was shaken for 15 min at 4° C. followed by centrifugation at 3000 rpm for 30 min at 4° C. 150 μL of supernatant was transferred into scint-tube (PerkinElmer, Cat: 6000192) and mixed with 2 mL of Ultima Gold Cocktail (PerkinElmer, Cat: 6013329). Radioactivity was counted using a TriCarb 2910 TR scintillation counter (PerkinElmer). Inhibition of the radioactivity by test articles were calculated using the equation below: % Inhibition=(1−(Assay well-Average_LC)/(Average_HC-Average_LC))×100%. IC50 values were calculated and graphed using the model “log(inhibitor) vs. response—Variable slope” included in GraphPad Prism 5 (San Diego, CA). […] Ki=IC50/(1+[L]/Kd) c.

Human recombinant PARP1 = Human recombinant PARP1 (Homo sapiens (Human), UniProt P09874); assay: RBC HotSpot PARP1 radioisotope-based filter binding assay; conditions: read-out: PARP1 IC50; 2.5 nM PARP1, histone H4, 10 μM 32P-NAD+
Description: as §3

22RV1 cells = assay: Cell proliferation assay, CellTiter Glo; format: cell-based; conditions: Homo sapiens, 22Rv1, 72 h; cell growth inhibition, three days of treatment
Description: (§1) a. […] IC50s were determined using 8 concentrations/compound. […] Ki=IC50/(1+[L]/Kd) c.
(§2) Cells were plated at varying density in the respective growth medium in 96 well plates. 24 hr later, cells were treated, in triplicate or quadruplicate, with test articles prepared in a range of concentrations by series dilution of DMSO stock solutions in growth medium and incubated for three to seven days. The number of viable 22RV1 and HT-29 cells was measured using CellTiter Glo assay (CTG, Promega, Madison, WI) after three days of treatment. Cell viability data were plotted using GraphPad Prism (GraphPad Software, Inc., San Diego, CA). In addition, a nonlinear regression model with a sigmoidal dose response and variable slope within GraphPad Prism was used to calculate the IC50 value of individual test articles.

HT-29 cells = assay: Cell proliferation assay, CellTiter Glo; format: cell-based; conditions: Homo sapiens, HT-29, 72 h; cell growth inhibition, three days of treatment
Description: as §1, §2

Human recombinant PARP2 = Human recombinant PARP2 (Homo sapiens (Human), UniProt Q9UGN5); assay: RBC HotSpot PARP2 radioisotope-based filter binding assay; conditions: read-out: PARP2 IC50; 2.5 nM PARP2, histone H3, 10 μM 32P-NAD+
Human recombinant PARP2, sequence (Q9UGN5 whole entry): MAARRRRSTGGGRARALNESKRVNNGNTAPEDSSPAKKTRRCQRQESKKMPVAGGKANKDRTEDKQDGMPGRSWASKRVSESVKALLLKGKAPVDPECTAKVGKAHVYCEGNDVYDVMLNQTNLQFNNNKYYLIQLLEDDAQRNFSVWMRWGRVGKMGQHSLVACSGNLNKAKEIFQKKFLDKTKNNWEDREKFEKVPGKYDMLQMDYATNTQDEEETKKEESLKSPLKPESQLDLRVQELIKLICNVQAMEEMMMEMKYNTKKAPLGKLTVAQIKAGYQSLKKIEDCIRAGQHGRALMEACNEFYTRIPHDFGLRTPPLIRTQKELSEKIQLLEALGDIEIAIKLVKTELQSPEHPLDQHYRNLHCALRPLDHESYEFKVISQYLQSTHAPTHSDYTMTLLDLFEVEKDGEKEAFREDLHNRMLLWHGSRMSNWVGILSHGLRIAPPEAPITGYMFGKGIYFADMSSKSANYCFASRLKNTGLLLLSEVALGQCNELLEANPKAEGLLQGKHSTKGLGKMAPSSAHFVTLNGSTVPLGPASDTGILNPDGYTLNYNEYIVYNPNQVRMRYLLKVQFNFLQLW
Description: as §3

Human recombinant PARP1, sequence (P09874 whole entry): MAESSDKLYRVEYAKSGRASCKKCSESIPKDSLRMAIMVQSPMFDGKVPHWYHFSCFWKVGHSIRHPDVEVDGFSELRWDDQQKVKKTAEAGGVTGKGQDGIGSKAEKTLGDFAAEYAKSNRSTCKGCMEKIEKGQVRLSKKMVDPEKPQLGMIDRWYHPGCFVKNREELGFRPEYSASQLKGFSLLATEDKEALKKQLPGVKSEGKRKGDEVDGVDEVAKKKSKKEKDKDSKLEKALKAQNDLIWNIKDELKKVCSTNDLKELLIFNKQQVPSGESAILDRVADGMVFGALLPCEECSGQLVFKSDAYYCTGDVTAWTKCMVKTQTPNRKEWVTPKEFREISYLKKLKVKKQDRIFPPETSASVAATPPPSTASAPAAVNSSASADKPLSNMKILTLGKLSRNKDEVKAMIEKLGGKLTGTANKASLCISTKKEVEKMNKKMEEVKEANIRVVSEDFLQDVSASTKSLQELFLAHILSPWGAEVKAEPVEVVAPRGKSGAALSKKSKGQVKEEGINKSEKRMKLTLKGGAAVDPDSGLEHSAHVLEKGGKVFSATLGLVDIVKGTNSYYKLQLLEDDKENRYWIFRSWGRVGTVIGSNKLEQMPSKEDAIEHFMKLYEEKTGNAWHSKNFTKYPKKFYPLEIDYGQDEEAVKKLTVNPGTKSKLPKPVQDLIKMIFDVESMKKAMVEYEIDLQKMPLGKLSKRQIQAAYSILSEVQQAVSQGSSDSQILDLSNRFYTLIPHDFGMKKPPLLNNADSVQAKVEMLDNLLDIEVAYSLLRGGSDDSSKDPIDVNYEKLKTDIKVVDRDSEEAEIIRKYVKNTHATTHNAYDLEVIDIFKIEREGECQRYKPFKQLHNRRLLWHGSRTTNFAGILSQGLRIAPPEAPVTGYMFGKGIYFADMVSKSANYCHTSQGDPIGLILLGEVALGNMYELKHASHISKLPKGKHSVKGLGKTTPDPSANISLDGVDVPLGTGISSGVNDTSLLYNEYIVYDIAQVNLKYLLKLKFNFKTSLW
AR in LNCaP cytosol, sequence (P10275 whole entry T878A): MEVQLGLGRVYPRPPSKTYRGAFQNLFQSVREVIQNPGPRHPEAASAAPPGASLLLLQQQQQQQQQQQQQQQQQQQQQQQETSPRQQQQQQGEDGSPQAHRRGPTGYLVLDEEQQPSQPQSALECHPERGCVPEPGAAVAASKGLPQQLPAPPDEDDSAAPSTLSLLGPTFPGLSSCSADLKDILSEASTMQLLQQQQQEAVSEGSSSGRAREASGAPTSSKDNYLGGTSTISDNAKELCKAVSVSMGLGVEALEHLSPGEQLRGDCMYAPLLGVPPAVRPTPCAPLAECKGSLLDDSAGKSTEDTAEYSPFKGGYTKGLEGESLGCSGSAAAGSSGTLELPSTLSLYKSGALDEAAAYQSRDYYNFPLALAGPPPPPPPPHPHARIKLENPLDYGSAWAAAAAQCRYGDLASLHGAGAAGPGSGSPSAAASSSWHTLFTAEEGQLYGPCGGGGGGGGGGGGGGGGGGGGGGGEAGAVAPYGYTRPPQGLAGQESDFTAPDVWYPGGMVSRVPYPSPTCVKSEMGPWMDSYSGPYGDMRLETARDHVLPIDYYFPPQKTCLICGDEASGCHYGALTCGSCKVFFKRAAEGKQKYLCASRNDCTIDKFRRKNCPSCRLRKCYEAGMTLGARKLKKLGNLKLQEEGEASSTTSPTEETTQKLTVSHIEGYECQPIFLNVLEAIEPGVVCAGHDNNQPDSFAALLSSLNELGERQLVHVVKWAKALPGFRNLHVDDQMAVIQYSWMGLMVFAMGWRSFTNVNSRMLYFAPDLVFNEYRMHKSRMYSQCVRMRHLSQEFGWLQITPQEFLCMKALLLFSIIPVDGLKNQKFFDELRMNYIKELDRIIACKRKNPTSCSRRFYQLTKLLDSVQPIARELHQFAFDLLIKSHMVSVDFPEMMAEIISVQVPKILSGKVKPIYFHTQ

`C[C@](O)(CS(=O)(=O)C1CCN(C(=O)c2cc(Cc3n[nH]c(=O)c4ccccc34)ccc2F)CC1)C(=O)Nc1ccc(C#N)c(C(F)(F)F)c1` [Compound 1.4, (R)—N-(4-cyano-3-(trifluoromethyl)phenyl)-3-(1-(2-fluoro-5-((4-oxo-3,4-dihydrophthalazin-1-yl)methyl)benzoyl)piperidin-4-ylsulfonyl)-2-hydroxy-2-methylpropanamide] showed an IC50 (AR in LNCaP cytosol) of 1030 nM, an IC50 (Human recombinant PARP1) of 0.6 nM and an IC50 (22RV1 cells) of 21000 nM. The IC50 (HT-29 cells) was over 30000 nM and the IC50 (Human recombinant PARP2) was 0.2 nM.
`CC1(C)C(=O)N(c2ccc(C#N)c(C(F)(F)F)c2)C(=O)N1CCNC(=O)c1cc(Cc2n[nH]c(=O)c3ccccc23)ccc1F` [Compound 1.8, N-(2-(3-(4-cyano-3-(trifluoromethyl)phenyl)-5,5-dimethyl-2,4-dioxoimidazolidin-1-yl)ethyl)-2-fluoro-5-((4-oxo-3,4-dihydrophthalazin-1-yl)methyl)benzamide] was tested, and the IC50 (AR in LNCaP cytosol) was 503 nM, the IC50 (Human recombinant PARP1) was 10 nM and the IC50 (22RV1 cells) was 5000 nM. It also gave an IC50 (HT-29 cells) of 17000 nM and an IC50 (Human recombinant PARP2) of 1 nM.
`C[C@](O)(COC1CCN(C(=O)c2cc(Cc3n[nH]c(=O)c4ccccc34)ccc2F)CC1)C(=O)Nc1ccc(C#N)c(C(F)(F)F)c1` [Compound 1.5, (S)—N-(4-cyano-3-(trifluoromethyl)phenyl)-3-(1-(2-fluoro-5-((4-oxo-3,4-dihydrophthalazin-1-yl)methyl)benzoyl)piperidin-4-yloxy)-2-hydroxy-2-methylpropanamide] showed an IC50 (AR in LNCaP cytosol) of 6670 nM, an IC50 (Human recombinant PARP1) of 2 nM and an IC50 (22RV1 cells) of 14000 nM. It also gave an IC50 (HT-29 cells) of 20000 nM and an IC50 (Human recombinant PARP2) of 0.4 nM.
With `CC1(C)C(=O)N(c2ccc([N+](=O)[O-])c(C(F)(F)F)c2)C(=O)N1CCNC(=O)c1cc(Cc2n[nH]c(=O)c3ccccc23)ccc1F` [Compound 1.7, N-(2-(5,5-dimethyl-3-(4-nitro-3-(trifluoromethyl)phenyl)-2,4-dioxoimidazolidin-1-yl)ethyl)-2-fluoro-5-((4-oxo-3,4-dihydrophthalazin-1-yl)methyl)benzamide] the IC50 (AR in LNCaP cytosol) was 4620 nM, the IC50 (Human recombinant PARP1) was 7 nM and the IC50 (22RV1 cells) was 3000 nM. It also gave an IC50 (HT-29 cells) of 10000 nM and an IC50 (Human recombinant PARP2) of 1 nM.
Compound `CC1(C)C(=O)N(c2ccc(C#N)c(C(F)(F)F)c2)C(=S)N1CCNC(=O)c1cc(Cc2n[nH]c(=O)c3ccccc23)ccc1F` [Compound 1.6, N-(2-(3-(4-cyano-3-(trifluoromethyl)phenyl)-5,5-dimethyl-4-oxo-2-thioxoimidazolidin-1-yl)ethyl)-2-fluoro-5-((4-oxo-3,4-dihydrophthalazin-1-yl)methyl)benzamide] has an IC50 (AR in LNCaP cytosol) of 94 nM, an IC50 (Human recombinant PARP1) of 5 nM and an IC50 (22RV1 cells) of 6000 nM. For the same compound, the IC50 (HT-29 cells) was 10000 nM and the IC50 (Human recombinant PARP2) was 0.6 nM.
